From US10131652B2, “Pyrimidinyloxy benzene derivatives as herbicides” (E. I. DU PONT DE NEMOURS AND COMPANY, priority 2014, dated 2018)
Read-outs that look alike come from different tables or passages of the source.

Tests used:
Type in all cases: in vivo
[1] = test system: rice (Oryza sativa); assay: Test D flooded paddy test plant response; details: Flood (flooded paddy test), visual rating on scale 0 to 100 (0 no effect, 100 complete control), 13 to 15 days
Description: (§1) Plant species in the flooded paddy test consisted of rice (Oryza sativa), small-flower umbrella sedge (Cyperus difformis), ducksalad (Heteranthera limosa), and bamyardgrass (Echinochloa crus-galli) grown to the 2-leaf stage for testing. At time of treatment, test pots were flooded to 3 cm above the soil surface, treated by application of test compounds directly to the paddy water, and then maintained at that water depth for the duration of the test. Treated plants and controls were maintained in a greenhouse for 13 to 15 days, after which time all species were compared to controls and visually evaluated. Plant response ratings, summarized in Table D, are based on a scale of 0 to 100 where 0 is no effect and 100 is complete control. A dash (-) response means no test result.

[2] = test system: barnyardgrass (Echinochloa crus-galli); assay: Test D flooded paddy test plant response; details: Flood (flooded paddy test), visual rating on scale 0 to 100 (0 no effect, 100 complete control), 13 to 15 days
Description: as §1

[3] = test system: small-flower umbrella sedge (Cyperus difformis); assay: Test D flooded paddy test plant response; details: Flood (flooded paddy test), visual rating on scale 0 to 100 (0 no effect, 100 complete control), 13 to 15 days
Description: as §1

[4] = test system: ducksalad (Heteranthera limosa); assay: Test D flooded paddy test plant response; details: Flood (flooded paddy test), visual rating on scale 0 to 100 (0 no effect, 100 complete control), 13 to 15 days
Description: as §1

[5] = test system: velvetleaf (Abutilon theophrasti); assay: Test B pre-/postemergence plant response; details: 1000 g ai/ha, 0 to 100 scale (0 no effect, 100 complete control); for pest or weed control at 1000 g/ha: Abutilon theophrasti, 240 h, read-out: Plant response rating, Velvetleaf
Summary of the method: (§2)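 Steps: plant seeds in loam soil–sand mix; spray soil preemergence, and in parallel spray 2–10 cm one- to two-leaf plants postemergence; hold ~10 days in greenhouse; visually rate injury against untreated controls (0 = no effect, 100 = complete control).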

[6] = test system: corn (Zea mays); assay: Test B pre-/postemergence plant response; details: 1000 g ai/ha, 0 to 100 scale (0 no effect, 100 complete control); for Corn plant response rating (crop injury, 0 = no effect, 100 = complete kill) at 1000 g/ha: Zea mays, 240 h
Summary of the method: as §2

[7] = test system: pigweed (Amaranthus retroflexus); assay: Test B pre-/postemergence plant response; details: 1000 g ai/ha, 0 to 100 scale (0 no effect, 100 complete control); for pest or weed control at 1000 g/ha: Amaranthus retroflexus, 240 h, read-out: Plant response rating, Pigweed
Summary of the method: as §2

[8] = test system: giant foxtail (Setaria faberii); assay: Test B pre-/postemergence plant response; details: 1000 g ai/ha, 0 to 100 scale (0 no effect, 100 complete control); for pest or weed control at 1000 g/ha: Setaria faberi, 240 h, read-out: Plant response rating, Foxtail, Giant
Summary of the method: as §2

[9] = test system: morningglory (Ipomoea spp.); assay: Test B pre-/postemergence plant response; details: 1000 g ai/ha, 0 to 100 scale (0 no effect, 100 complete control); for pest or weed control at 1000 g/ha: Ipomoea, 240 h, read-out: Plant response rating, Morningglory
Summary of the method: as §2

[10] = test system: barnyardgrass (Echinochloa crus-galli); assay: Test B pre-/postemergence plant response; details: 1000 g ai/ha, 0 to 100 scale (0 no effect, 100 complete control); for pest or weed control at 1000 g/ha: Echinochloa crus-galli, 240 h, read-out: Plant response rating, Barnyardgrass
Summary of the method: as §2

[11] = test system: wheat (Triticum aestivum); assay: Test B pre-/postemergence plant response; details: 1000 g ai/ha, 0 to 100 scale (0 no effect, 100 complete control); for plant injury at 1000 g/ha: Triticum aestivum, 240 h, read-out: Plant response rating, Wheat
Summary of the method: as §2

[12] = test system: large (Lg) crabgrass (Digitaria sanguinalis); assay: Test B pre-/postemergence plant response; details: 1000 g ai/ha, 0 to 100 scale (0 no effect, 100 complete control); for pest or weed control at 1000 g/ha: Digitaria sanguinalis, 240 h, read-out: Plant response rating, Crabgrass, Large
Summary of the method: as §2

[13] = test system: rice (Oryza sativa); assay: Test C flooded paddy test plant response; details: Oryza sativa; Flood, 250 g ai/ha; scale of 0 to 100 where 0 is no effect and 100 is complete control; 13 to 15 days; read-out: Rice plant response rating
Summary of the method: (§3)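 Visual injury ratings (0, no effect; 100, complete control) were assigned after 13 to 15 days in a greenhouse, comparing treated plants with controls. Compounds had been added straight into paddy water over 2-leaf-stage plants flooded to 3 cm.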

[14] = test system: barnyardgrass (Echinochloa crus-galli); assay: Test C flooded paddy test plant response; details: Echinochloa crus-galli; Flood, 250 g ai/ha; scale of 0 to 100 where 0 is no effect and 100 is complete control; 13 to 15 days; read-out: Barnyardgrass plant response rating
Summary of the method: as §3

[15] = test system: small-flower umbrella sedge (Cyperus difformis); assay: Test C flooded paddy test plant response; details: Cyperus difformis; Flood, 250 g ai/ha; scale of 0 to 100 where 0 is no effect and 100 is complete control; 13 to 15 days; read-out: Sedge, Umbrella plant response rating
Summary of the method: as §3

[16] = test system: ducksalad (Heteranthera limosa); assay: Test C flooded paddy test plant response; details: Heteranthera limosa; Flood, 250 g ai/ha; scale of 0 to 100 where 0 is no effect and 100 is complete control; 13 to 15 days; read-out: Ducksalad plant response rating
Summary of the method: as §3

For `Clc1ccc(-c2ccccc2Oc2ncc(Cl)cn2)nc1` [Compound 1, 5-chloro-2-[2-(5-chloro-2-pyridinyl)phenoxy]pyrimidine], the “Plant response rating, Rice” value ([1]; 31 g ai/ha) was 0, the “Plant response rating, Rice” value ([1]; 62 g ai/ha) was 0 and the “Plant response rating, Rice” value ([1]; 125 g ai/ha) was 0. For the same molecule, the “Plant response rating, Rice” value ([1]; 250 g ai/ha) was 0, the “Plant response rating, Barnyardgrass” value ([2]; 31 g ai/ha) was 0 and the “Plant response rating, Barnyardgrass” value ([2]; 62 g ai/ha) was 0. For the same molecule, the “Plant response rating, Barnyardgrass” value ([2]; 125 g ai/ha) was 0, the “Plant response rating, Barnyardgrass” value ([2]; 250 g ai/ha) was 0 and the “Plant response rating, Sedge, Umbrella” value ([3]; 31 g ai/ha) was 0. For the same molecule, the “Plant response rating, Sedge, Umbrella” value ([3]; 62 g ai/ha) was 0, the “Plant response rating, Sedge, Umbrella” value ([3]; 125 g ai/ha) was 0 and the “Plant response rating, Sedge, Umbrella” value ([3]; 250 g ai/ha) was 0. The “Plant response rating, Ducksalad” value ([4]; 31 g ai/ha) was 0, the “Plant response rating, Ducksalad” value ([4]; 62 g ai/ha) was 0 and the “Plant response rating, Ducksalad” value ([4]; 125 g ai/ha) was 0. For the same molecule, the “Plant response rating, Ducksalad” value ([4]; 250 g ai/ha) was 0, the pest or weed control at 1000 g/ha ([5]; post-emergence, Postemergence) was 100% and the pest or weed control at 1000 g/ha ([5]; pre-emergence, Preemergence) was 80%. For the same molecule, the Corn plant response rating (crop injury, 0 = no effect, 100 = complete kill) at 1000 g/ha ([6]; post-emergence, Postemergence) was 10%, the Corn plant response rating (crop injury, 0 = no effect, 100 = complete kill) at 1000 g/ha ([6]; pre-emergence, Preemergence) was 0% and the pest or weed control at 1000 g/ha ([7]; post-emergence, Postemergence) was 100%. It also gave a pest or weed control at 1000 g/ha ([7]; pre-emergence, Preemergence) of 100%, a pest or weed control at 1000 g/ha ([8]; post-emergence, Postemergence) of 80% and a pest or weed control at 1000 g/ha ([8]; pre-emergence, Preemergence) of 100%. For the same molecule, the pest or weed control at 1000 g/ha ([9]; post-emergence, Postemergence) was 60%, the pest or weed control at 1000 g/ha ([9]; pre-emergence, Preemergence) was 20% and the pest or weed control at 1000 g/ha ([10]; post-emergence, Postemergence) was 70%. The pest or weed control at 1000 g/ha ([10]; pre-emergence, Preemergence) was 80%, the plant injury at 1000 g/ha ([11]; post-emergence, Postemergence) was 0% and the plant injury at 1000 g/ha ([11]; pre-emergence, Preemergence) was 0%. For the same molecule, the pest or weed control at 1000 g/ha ([12]; post-emergence, Postemergence) was 70% and the pest or weed control at 1000 g/ha ([12]; pre-emergence, Preemergence) was 100%.
`FC(F)(F)Oc1cccc(-c2ccccc2Oc2ncc(Cl)cn2)c1` [Compound 40] was tested, and the “Plant response rating, Rice” value ([1]; 31 g ai/ha) was 0, the “Plant response rating, Rice” value ([1]; 62 g ai/ha) was 0 and the “Plant response rating, Rice” value ([1]; 125 g ai/ha) was 0. The “Plant response rating, Rice” value ([1]; 250 g ai/ha) was 0, the “Plant response rating, Barnyardgrass” value ([2]; 31 g ai/ha) was 0 and the “Plant response rating, Barnyardgrass” value ([2]; 62 g ai/ha) was 0. The “Plant response rating, Barnyardgrass” value ([2]; 125 g ai/ha) was 0, the “Plant response rating, Barnyardgrass” value ([2]; 250 g ai/ha) was 0 and the “Plant response rating, Sedge, Umbrella” value ([3]; 31 g ai/ha) was 0. The “Plant response rating, Sedge, Umbrella” value ([3]; 62 g ai/ha) was 0, the “Plant response rating, Sedge, Umbrella” value ([3]; 125 g ai/ha) was 30 and the “Plant response rating, Sedge, Umbrella” value ([3]; 250 g ai/ha) was 50. The “Plant response rating, Ducksalad” value ([4]; 31 g ai/ha) was 0, the “Plant response rating, Ducksalad” value ([4]; 62 g ai/ha) was 0 and the “Plant response rating, Ducksalad” value ([4]; 125 g ai/ha) was 20. For the same molecule, the “Plant response rating, Ducksalad” value ([4]; 250 g ai/ha) was 40, the “Plant response rating, Velvetleaf” value ([5]; Postemergence) was 100 and the “Plant response rating, Velvetleaf” value ([5]; Preemergence) was 90. The “Plant response rating, Corn” value ([6]; Postemergence) was 20, the “Plant response rating, Corn” value ([6]; Preemergence) was 0 and the “Plant response rating, Pigweed” value ([7]; Postemergence) was 100. For the same molecule, the “Plant response rating, Pigweed” value ([7]; Preemergence) was 100, the “Plant response rating, Foxtail, Giant” value ([8]; Postemergence) was 50 and the “Plant response rating, Foxtail, Giant” value ([8]; Preemergence) was 100. For the same molecule, the “Plant response rating, Morningglory” value ([9]; Postemergence) was 100, the “Plant response rating, Morningglory” value ([9]; Preemergence) was 0 and the “Plant response rating, Barnyardgrass” value ([10]; Postemergence) was 30. For the same molecule, the “Plant response rating, Barnyardgrass” value ([10]; Preemergence) was 50, the “Plant response rating, Wheat” value ([11]; Postemergence) was 10 and the “Plant response rating, Wheat” value ([11]; Preemergence) was 0. For the same molecule, the “Plant response rating, Crabgrass, Large” value ([12]; Postemergence) was 50 and the “Plant response rating, Crabgrass, Large” value ([12]; Preemergence) was 70.
`Clc1cnc(Oc2ccccc2-c2cc(Br)no2)nc1` [Compound 12, 2-[2-(3-bromo-5-isoxazolyl)phenoxy]-5-chloropyrimidine] was tested, and the pest or weed control at 1000 g/ha ([5]; post-emergence, Postemergence) was 90%, the pest or weed control at 1000 g/ha ([5]; pre-emergence, Preemergence) was 70% and the Corn plant response rating (crop injury, 0 = no effect, 100 = complete kill) at 1000 g/ha ([6]; post-emergence, Postemergence) was 0%. The Corn plant response rating (crop injury, 0 = no effect, 100 = complete kill) at 1000 g/ha ([6]; pre-emergence, Preemergence) was 0%, the pest or weed control at 1000 g/ha ([7]; post-emergence, Postemergence) was 100% and the pest or weed control at 1000 g/ha ([7]; pre-emergence, Preemergence) was 90%. For the same molecule, the pest or weed control at 1000 g/ha ([8]; post-emergence, Postemergence) was 40%, the pest or weed control at 1000 g/ha ([8]; pre-emergence, Preemergence) was 90% and the pest or weed control at 1000 g/ha ([9]; post-emergence, Postemergence) was 30%. The pest or weed control at 1000 g/ha ([9]; pre-emergence, Preemergence) was 0%, the pest or weed control at 1000 g/ha ([10]; post-emergence, Postemergence) was 40% and the pest or weed control at 1000 g/ha ([10]; pre-emergence, Preemergence) was 20%. For the same molecule, the plant injury at 1000 g/ha ([11]; post-emergence, Postemergence) was 10%, the plant injury at 1000 g/ha ([11]; pre-emergence, Preemergence) was 0% and the pest or weed control at 1000 g/ha ([12]; post-emergence, Postemergence) was 30%. The pest or weed control at 1000 g/ha ([12]; pre-emergence, Preemergence) was 80%, the plant injury at 250 g/ha [13] was 0% and the pest or weed control at 250 g/ha [14] was 10%. For the same molecule, the pest or weed control at 250 g/ha [15] was 0% and the pest or weed control at 250 g/ha [16] was 40%.
